Data as given in patent US9120776B2, “Condensed heterocyclic compound” (Takeda Pharmaceutical Company Limited, priority 2011, dated 2015).

Assays:
[1] = test system: IL-17A gene expression; assay: IL-17A gene expression induced by anti-CD3 antibody stimulation in mouse colon; assay type: in vivo; settings: po, Balb/c mice
Description: (§1) An anti-CD3 antibody (5 μg/500 μL/mouse, BioXcell) or saline (500 μL/mouse) was intraperitoneally administered to Balb/c mice (female, 8 weeks old). Three hours after the administration, the mice were anesthetized by ether inhalation, and euthanized by cervical spine fracture dislocation. Then, the mice underwent laparotomy, and colons were isolated. The obtained colons were washed with saline, and then, immersed in RNA stabilization buffer (RNAlater, QIAGEN) at 4° C. for 18 hours or longer. Meanwhile, a suspension of a compound in 0.5% methylcellulose was orally administered an hour before administration of anti-CD3 antibody.
(§2) The colon tissues were retrieved from RNAlater, and immediately immersed in 5 mL of RLT buffer (RNeasy Mini Kit, QIAGEN). Then, the tissues were homogenized at room temperature. Total RNA was extracted from the homogenized solution in accordance with the protocol of RNeasy Mini Kit (QIAGEN), and cDNA was prepared using high capacity RNA-to-cDNA Kit (Applied biosystems). mRNAs of various cytokines were detected by realtime-PCR (TaqMan PCR) using the obtained cDNA as a template. TaqMan universal master mixII (Applied biosystems) was used as PCR buffer, and TaqMan Gene Expression Assays (Applied biosystems): Mm00439619_m1 (IL-17A), Mm00801778 m1 (IFN-γ) and 43252341E (β-actin) were used for detection of each cytokine gene, respectively. The expression levels of each gene were shown as normalized values calculated using β-actin expression level.
All the data were shown as mean values±SE. Statistical analyses were performed by Student's t test and William's test.

[2] = test system: IL-17A gene expression; assay: IL-17A gene expression in lymph node of EAE rat model; assay type: in vivo; settings: 30, 100 and 300 mg/kg, po twice a day; EAE-sensitized Lewis rat, 5th day
Description: A killed Mycobacterium tuberculosis, H37Ra (DIFCO), was suspended at the concentration of 2 mg/mL in Freund Incomplete adjuvant (DIFCO), and 5 mg of MBP (Sigma) was dissolved in 1.25 mL of saline (Otsuka). These two solutions were mixed at the ratio of 1:1 using glass syringe with a three-way stopcock until emulsion was obtained. The emulsion was intracutaneously administered to the bottom of the right foot of Lewis rats (male, 7 weeks old) at 0.1 mL/rat.
A suspension of the compound of Example 14 in 0.5% methylcellulose was orally administered twice a day from the day of sensitization at the dose of 30, 100 or 300 mg/kg. The last administration was performed on the 5th day after sensitization, and an autopsy was performed 4 hours after the last administration.
The autopsy was performed on the 5th day after the sensitization, and popliteal lymph nodes of the right leg were collected. […] The synthesized cDNA was detected by PCR reaction using Taqman Gene Expression Master Mix (Applied Biosystems) and 7900HT Fast realtime PCR system (Applied Biosystems) (Stage 1: 50° C., 2 min, Stage 2: 95° C., 10 min, Stage 3: 95° C., 15 sec, 60° C., 1 min, 40 cycle). […]

[3] = test system: human PBMC; assay: IL17 Production Test in Human PBMC; assay type: cell-based; settings: 72 h, inhibitory rate at 10 μM of test compound, anti-CD3/CD28 stimulation, 3 days, IL-17A by ELISA
Description: Peripheral blood mononuclear cells (PBMC) collected from human peripheral blood by a density gradient centrifugation method were stimulated by Dynabeads (registered trade mark; anti-CD3/CD28 antibody) and cultured at 37° C. for 3 days. The compound was dissolved in DMSO and then added thereto. After culture for 3 days under such conditions, the concentration of IL-17A in the culture supernatant obtained by centrifugation was measured by ELISA to evaluate the effect of the compound on IL-17 production.

[4] = test system: Th17 cells; assay: Human Th17 Cell Differentiation Test (IL-17A in culture supernatant, ELISA); assay type: cell-based; settings: 144 h; inhibitory rate at 10 μM of test compound; human CD4 positive naive T cells, 6 days, IL-17A by ELISA
Description: CD4 positive naive T cells were isolated from peripheral blood mononuclear cells (PBMC) collected from human peripheral blood by a density gradient centrifugation method. The CD4 positive naive T cells were seeded in a 96 well plate (2×10^4 cells/well), and stimulated (37° C. for culture) with anti-CD 3/28Ab Dynabeads (Invitrogen) for 6 days in the presence of IL-1β, IL-6, IL-23, TGFβ, anti-IFNγ Ab (BioLegend) and anti-IL-4 Ab (BioLegend) to differentiate into Th17 cells. The compound was dissolved in DMSO and then added thereto. After culture for 6 days, the concentration of IL-17A in the culture supernatant obtained by centrifugation was measured by ELISA to evaluate differentiation of the Th17 cells.

[5] = test system: IFN-γ gene expression; assay: IFN-γ gene expression induced by anti-CD3 antibody stimulation in mouse colon; assay type: in vivo; settings: 30, 100 and 300 mg/kg, po, Balb/c mice
Description: as §1
as §2, with “TaqMan universal master mixII (Applied biosystems) was used as PCR buffer, and TaqMan Gene Expression Assays (Applied biosystems): Mm00439619_m1 (IL-17A), Mm00801778 m1 (IFN-γ) and 43252341E (β-actin) were used for detection of each cytokine gene, respectively.” left out, “level. […]” for “level.”

[6] = test system: Th17 cells; assay: Mouse Th17 Cell Differentiation Test (IL-17A in culture supernatant, ELISA); assay type: cell-based; settings: inhibitory rate at 10 μM of test compound; mouse CD4 positive naive T cells, 4 days, IL-17A by ELISA; 10 µM
Description: CD4 positive naive T cells were collected from the spleen cells of BALB/c mice (female, 8-11w, Charles River Laboratories Japan, Inc.) using CD4+CD62L+ T Cell Isolation kit II (Miltenyi Biotec). The CD4 positive naive T cells in a 96 well plate (3×10^5 cells/well) were stimulated (37° C. for culture) with anti-mouse CD3ε antibody (Bio X cell) (10 μg/mL, solid phase) and anti-CD28 antibody (Bio X cell) (5 μg/mL) for 4 days in the presence of anti-IFN-γ antibody (BioLegend), anti-IL-4 antibody (BioLegend), anti-IL-2 antibody (BioLegend), IL-6, TGF-β and IL-23 to differentiate into Th17 cells. The compound was dissolved in DMSO and then added thereto. The cells were cultured under these conditions for 4 days, and differentiation of the Th17 cells was evaluated by using the concentration of IL-17A, which was measured by ELISA, in the culture supernatant obtained by centrifugation.

## CCn1c2ccccc2c2cc(NC(=O)CC(C)CC(=O)Nc3ccc(C#N)c(Cl)c3)ccc21 (centres unmarked) [Example 14, N-(3-chloro-4-cyanophenyl)-N′-(9-ethyl-9H-carbazol-3-yl)-3-methylpentanediamide]
[1]; 30 mg/kg
  inhibition rate of IL-17A expression: 10%
[1]; 100 mg/kg
  inhibition rate of IL-17A expression: 25%
[1]; 300 mg/kg
  inhibition rate of IL-17A expression: 53%
[2]
  effect on increase in IL-17A gene expression in lymph node: tended to suppress the increase in IL-17A gene expression
[3]
  inhibition at 10 µM: 95%
[4]
  inhibition at 10 µM: 99.3%
[5]
  effect on IFN-γ expression: did not affect IFN-γ expression
[6]
  inhibitory rate (%): 96.0%
